Measured values from patent US20250129103A1, “METHODS FOR TREATMENT OF CANCER” (Frontier Medicines Corporation, priority 2022, published 2025).
In brackets after ≈: the same amount, converted by molar mass.

Assays:
[1] = biological target: KRAS G12C (GMPPNP-loaded) and cRAF (Ras-binding domain) interaction (Homo sapiens (Human), UniProt P01116, C118S/C51S/C80L/G12C); experiment: Inhibition of KRAS G12C and cRAF binding (AlphaScreen); details: KRAS G12C loaded with GMPPNP, cRaf RBD, 2 hours preincubation; read-out: Raf-1 RBD K-Ras IC50
Sequence of KRAS G12C (GMPPNP-loaded) and cRAF (Ras-binding domain) interaction (P01116 other isoform, or with tags, fused parts or gaps G12C/C51S/C80L/C118S): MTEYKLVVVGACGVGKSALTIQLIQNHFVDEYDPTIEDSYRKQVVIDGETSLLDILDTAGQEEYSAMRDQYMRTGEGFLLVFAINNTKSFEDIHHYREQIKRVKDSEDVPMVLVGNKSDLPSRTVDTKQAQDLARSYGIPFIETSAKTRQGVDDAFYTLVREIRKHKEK
Summary of the method: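 AlphaScreen readout (680 nm excitation, 570 nm emission) of RBD binding after a 60-90 min bead step at room temperature. This step follows 2 h compound exposure of GMPPNP-preloaded KRAS G12C in Hepes pH 7.4 buffer with MgCl2 and 10 μM GMPPNP.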

[2] = Determination of logD (1-octanol / phosphate buffer pH 7.4); format: physicochemical; details: 1-octanol/phosphate buffer, pH 7.4, pH 7.4, 1-octanol/phosphate buffer; read-out: Log D, pH 7.4
Method: Preparation of phosphate buffer saturated with 1-octanol: 10 mL of 100 mM phosphate buffer (pH 7.4) was added to 100 mL of 1-octanol. The mixture was shaken vigorously and left to stand at room temperature overnight.
Preparation of 1-octanol saturated with phosphate buffer: 10 mL of 1-octanol was added to 100 mL of 100 mM phosphate buffer (pH 7.4). The mixture was shaken vigorously and left to stand at room temperature overnight.
149 μL of phosphate buffer saturated with 1-octanol was added into 1st sample tube. 149 μL of 1-octanol saturated with phosphate buffer was added into the 2nd sample tube. The sample tubes were mixed vigorously and shaken for 1 hour at a speed of 800 rpm at room temperature. The sample tubes were subjected to centrifugation at 4000 rpm for 5 minutes at room temperature. Samples of the supernatant were taken from both tubes, diluted with an appropriate LCMS buffer, and analyzed on an LCMS instrument. LogD was calculated according to the following equation.

[3] = Determination of kinetic solubility (pH 7.4); format: physicochemical; details: phosphate buffer, pH 7.4, aqueous buffer, kinetic from dmso stock, 50 mM phosphate buffer pH 7.4, read-out: Ksol, pH 7.4
Method: 490 μL of a 50 mM phosphate buffer (pH 7.4) was added to the sample solution. The mixture was vortexed for at least 2 minutes. The vial was shaken on a Barnstead shaker at 800 rpm at room temperature for 2 hours. The vial was centrifuged at 4000 rpm for 20 minutes. The Mini-UniPrep vial was compressed to prepare a filtrate, which was injected into an HPLC-UV and LC-MS/MS system. Kinetic solubility was calculated by referencing sample peak areas to a standard calibration curve.

| IC50 [1] [nM] | logD [2] | solubility kinetic at 2 h [3] [µg/mL] | SMILES |
| --- | --- | --- | --- |
| 100 to 500 | 2.4 | 29.9 (≈ 37.8 µM) | N#CC[C@H]1CN(c2nc(OC[C@@]34CCCN3C[C@H](F)C4)nc3c(F)c(-c4cccc5cccc(Cl)c45)ncc23)CCN1C(=O)/C=C/CN1CCS(=O)(=O)CC1 [Compound 207] |
| < 10 | 1.87 | 135 (≈ 178 µM) | N#CC[C@H]1CN(c2nc(OC[C@@]34CCCN3C[C@H](F)C4)nc3c(F)c(-c4cccc5ccc(F)c(F)c45)ncc23)CCN1C(=O)/C=C/CN1C[C@@H]2C[C@H]1CO2 [Compound 225] |
| < 10 | 3.68 | 34.8 (≈ 46.9 µM) | N#CC[C@H]1CN(c2nc(OC[C@@]34CCCN3C[C@H](F)C4)nc3c(F)c(-c4cccc5cccc(F)c45)ncc23)CCN1C(=O)/C=C/CN1CCSCC1 [Compound 232] |
| 10 to 100 | 2.91 | 102 (≈ 141 µM) | N#CC[C@H]1CN(c2nc(OC[C@@]34CCCN3C[C@H](F)C4)nc3c(F)c(-c4cccc5cccc(F)c45)ncc23)CCN1C(=O)/C=C/CN1CCOCC1 [Compound 233] |
| 10 to 100 | 3.75 | 72.5 (≈ 96.1 µM) | C[C@H]1CN(C/C=C/C(=O)N2CCN(c3nc(OC[C@@]45CCCN4C[C@H](F)C5)nc4c(F)c(-c5cccc6cccc(F)c56)ncc34)C[C@@H]2CC#N)C[C@H](C)O1 [Compound 235] |
| 100 to 500 | 3.59 | 88 (≈ 117 µM) | C[C@@H]1CN(C/C=C/C(=O)N2CCN(c3nc(OC[C@@]45CCCN4C[C@H](F)C5)nc4c(F)c(-c5cccc6cccc(F)c56)ncc34)C[C@@H]2CC#N)C[C@@H](C)O1 [Compound 236] |
| 10 to 100 | 2.53 | 92.6 (≈ 120 µM) | C[C@@H]1CN(C/C=C/C(=O)N2CCN(c3nc(OC[C@@]45CCCN4C[C@H](F)C5)nc4c(F)c(-c5cccc6ccc(F)c(F)c56)ncc34)C[C@@H]2CC#N)C[C@H](C)O1 [Compound 239] |
| 10 to 100 | 3.42 | 49.5 (≈ 64 µM) | C[C@H]1CN(C/C=C/C(=O)N2CCN(c3nc(OC[C@@]45CCCN4C[C@H](F)C5)nc4c(F)c(-c5cccc6ccc(F)c(F)c56)ncc34)C[C@@H]2CC#N)C[C@H](C)O1 [Compound 240] |
| 10 to 100 | 2.94 | 60.1 (≈ 77.7 µM) | C[C@@H]1CN(C/C=C/C(=O)N2CCN(c3nc(OC[C@@]45CCCN4C[C@H](F)C5)nc4c(F)c(-c5cccc6ccc(F)c(F)c56)ncc34)C[C@@H]2CC#N)C[C@@H](C)O1 [Compound 241] |
| 10 to 100 | 2.91 | 74.4 (≈ 98.8 µM) | N#CC[C@H]1CN(c2nc(OC[C@@]34CCCN3C[C@H](F)C4)nc3c(F)c(-c4cccc5cccc(F)c45)ncc23)CCN1C(=O)/C=C/CN1CC2CCC(C1)O2 [Compound 245] |
| 10 to 100 | 2.96 | 69.5 (≈ 93.9 µM) | Cc1c(F)ccc2cccc(-c3ncc4c(N5CCN(C(=O)/C=C/CN6CCOCC6)[C@@H](CC#N)C5)nc(OC[C@@]56CCCN5C[C@H](F)C6)nc4c3F)c12 [Compound 246] |
| < 10 | 3.38 | 71.1 (≈ 92.2 µM) | N#CC[C@H]1CN(c2nc(OC[C@@]34CCCN3C[C@H](F)C4)nc3c(F)c(-c4cccc5ccc(F)c(F)c45)ncc23)CCN1C(=O)/C=C/CN1CC2CCC(C1)O2 [Compound 249] |

More lines, now with the values behind:

| SMILES | IC50 [1] [nM] | logD [2] | solubility kinetic at 2 h [3] [µg/mL] |
| --- | --- | --- | --- |
| CC(C)c1noc(/C=C/C(=O)N2CCN(c3nc(OC[C@@]45CCCN4C[C@H](F)C5)nc4c(F)c(-c5ccccc5C(F)F)ncc34)C[C@@H]2CC#N)n1 [Compound 152] | > 500 | 2.62 | 126 (≈ 175 µM) |
| Cc1ncc(F)c(/C=C/C(=O)N2CCN(c3nc(OC[C@@]45CCCN4C[C@H](F)C5)nc4c(F)c(-c5cccc6cccc(Cl)c56)ncc34)C[C@@H]2CC#N)n1 [Compound 157] | 10 to 100 | 4.05 | 0.55 (≈ 0.729 µM) |
| N#CC[C@H]1CN(c2nc(OC[C@@]34CCCN3C[C@H](F)C4)nc3c(F)c(-c4cccc5cccc(Cl)c45)ncc23)CCN1C(=O)/C=C/c1nc(C2CC2)ncc1F [Compound 158] | 100 to 500 | 4.52 | 0.01 (≈ 0.0128 µM) |
| N#CC[C@H]1CN(c2nc(OC[C@@]34CCCN3C[C@H](F)C4)nc3c(F)c(-c4cccc5ccc(F)c(Cl)c45)ncc23)CCN1C(=O)/C=C/CN1CCOC2CC21 (stereo partly drawn) [Compound 160] | < 10 | 3.33 | 86.8 (≈ 112 µM) |
| CN1CCN(C/C=C/C(=O)N2CCN(c3nc(OCC45CCCN4CCC5)nc4c3CCN(c3cccc5cccc(Cl)c35)C4)C[C@@H]2CC#N)CC1 [Compound 162] | 10 to 100 | 1.97 | 133 (≈ 183 µM) |
| N#CC[C@H]1CN(c2nc(OCC34CCCN3CCC4)nc3c2CCN(c2cccc4cccc(Cl)c24)C3)CCN1C(=O)/C=C/CN1CCCOCC1 [Compound 163] | < 10 | 2.44 | 130 (≈ 180 µM) |
| N#CC[C@H]1CN(c2nc(OCC34CCCN3CCC4)nc3c2CCN(c2cccc4cccc(Cl)c24)C3)CCN1C(=O)/C=C/CN1[C@@H]2CC[C@H]1COC2 [Compound 168] | < 10 | 2.59 | 104 (≈ 142 µM) |
| N#CC[C@H]1CN(c2nc(OCC34CCCN3CCC4)nc3c2CCN(c2cccc4cccc(Cl)c24)C3)CCN1C(=O)/C=C/CN1CCS(=O)(=O)CC1 [Compound 169] | 10 to 100 | 2.02 | 108 (≈ 142 µM) |
| N#CC[C@H]1CN(c2nc(OCC34CCCN3CCC4)nc3c2CCN(c2cccc4cccc(Cl)c24)C3)CCN1C(=O)/C=C/CN1CC2COCC(C1)O2 [Compound 172] | < 10 | 2.1 | 119 (≈ 158 µM) |
| N#CC[C@H]1CN(c2nc(OCC34CCCN3CCC4)nc3c(F)c(-c4cccc5ccc(F)c(Cl)c45)ncc23)CCN1C(=O)/C=C/CN1C[C@@H]2C[C@H]1CO2 [Compound 182] | < 10 | 1.44 | 119 (≈ 158 µM) |
| N#CC[C@H]1CN(c2nc(OCC34CCCN3CCC4)nc3c(F)c(-c4cccc5ccc(F)c(Cl)c45)ncc23)CCN1C(=O)/C=C/CN1C[C@H]2C[C@@H]1CO2 [Compound 183] | < 10 | 1.48 | 110 (≈ 146 µM) |
| N#CC[C@H]1CN(c2nc(OCC34CCCN3CCC4)nc3c2CCN(c2cccc4cccc(Cl)c24)C3)CCN1C(=O)/C=C/CN1CC2C(C1)C2(F)F (stereo partly drawn) [Compound 193] | < 10 | 3.13 | 97.3 (≈ 131 µM) |
| N#CC[C@H]1CN(c2nc(OCC34CCCN3CCC4)nc3c2CCN(c2cccc4cccc(Cl)c24)C3)CCN1C(=O)/C=C/CN1C[C@H]2COC[C@H]2C1 [Compound 195] | 10 to 100 | 2.44 | 149 (≈ 202 µM) |
| N#CC[C@H]1CN(c2nc(OCC34CCCN3CCC4)nc3c2CCN(c2cccc4cccc(Cl)c24)C3)CCN1C(=O)/C=C/CN1CC(F)C1 [Compound 201] | 10 to 100 | 2.76 | 119 (≈ 171 µM) |
| Cc1nsc(/C=C/C(=O)N2CCN(c3nc(OC[C@@]45CCCN4C[C@H](F)C5)nc4c3C[C@H](C)[C@@H](c3nc(N)cc(C)c3C(F)(F)F)C4)C[C@@H]2CC#N)n1 [Compound 203] | 10 to 100 | 4.59 | 0.01 (≈ 0.0132 µM) |
| N#CC[C@H]1CN(c2nc(OC[C@@]34CCCN3C[C@H](F)C4)nc3c(F)c(-c4cccc5cccc(F)c45)ncc23)CCN1C(=O)/C=C/CN1CC2CC(C1)O2 [Compound 237] | < 10 | 2.87 | 67 (≈ 90.7 µM) |
| CCc1c(F)ccc2cccc(-c3ncc4c(N5CCN(C(=O)/C=C/CN6CC7CC(C6)O7)[C@@H](CC#N)C5)nc(OC[C@@]56CCCN5C[C@H](F)C6)nc4c3F)c12 [Compound 242] | < 10 | 3.38 | 93.3 (≈ 122 µM) |
| Cc1c(F)ccc2cccc(-c3ncc4c(N5CCN(C(=O)/C=C/CN6CC7CC(C6)O7)[C@@H](CC#N)C5)nc(OC[C@@]56CCCN5C[C@H](F)C6)nc4c3F)c12 [Compound 247] | < 10 | 3.02 | 88.6 (≈ 118 µM) |
| Cc1nccc(/C=C/C(=O)N2CCN(c3nc(OC[C@@]45CCCN4C[C@H](F)C5)nc4c(F)c(-c5cccc6ccc(F)c(C)c56)ncc34)C[C@@H]2CC#N)n1 [Compound 254] | < 10 | 3.79 | 4.99 (≈ 6.8 µM) |
| C#Cc1c(F)ccc2cccc(-c3ncc4c(N5CCN(C(=O)/C=C/CN6CC7CC(C6)O7)[C@@H](CC#N)C5)nc(OC[C@@]56CCCN5C[C@H](F)C6)nc4c3F)c12 [Compound 256] | < 10 | 2.71 | 101 (≈ 133 µM) |
